Measurements taken from ChEMBL document CHEMBL1201862, “PubChem BioAssay data set” (2004).
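Each compound was tested at five concentrations against cells in 96-well plates for 48 hours. GI50: concentration for 50% inhibition of growth.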 Calls of active or inactive are those of the source. Cut-off read from the data, not from the text of the source: active = GI50 up to about 1.1 µM and inactive = higher.

What was measured:
Experiment in all cases: inhibition of tumour cell growth, NCI panel, 48 h
CAKI-1 = system: CAKI-1
HOP-62 = system: HOP-62
MDA-N = system: MDA-N
LOX IMVI = system: LOX IMVI
MDA-MB-231 = system: MDA-MB-231
HCC 2998 = system: HCC 2998
A498 = system: A498
MCF7 = system: MCF7
HCT-15 = system: HCT-15
PC-3 = system: PC-3
SNB-75 = system: SNB-75
HL-60 = system: HL-60
786-0 = system: 786-0
HOP-92 = system: HOP-92
SF-295 = system: SF-295
SK-MEL-28 = system: SK-MEL-28
OVCAR-4 = system: OVCAR-4
K562 = system: K562
SNB-19 = system: SNB-19
COLO 205 = system: COLO 205
T47D = system: T47D
MDA-MB-435 = system: MDA-MB-435
MOLT-4 = system: MOLT-4
NCI-H226 = system: NCI-H226
SF-268 = system: SF-268
OVCAR-3 = system: OVCAR-3
OVCAR-8 = system: OVCAR-8
UO-31 = system: UO-31
OVCAR-5 = system: OVCAR-5
UACC-62 = system: UACC-62
SF-539 = system: SF-539
U-251 = system: U-251
NCI-H460 = system: NCI-H460
SW-620 = system: SW-620
SK-OV-3 = system: SK-OV-3
RXF 393 = system: RXF 393
Malme-3M = system: Malme-3M
NCI-H522 = system: NCI-H522
NCI/ADR-RES = system: NCI/ADR-RES
TK-10 = system: TK-10
SR = system: SR
BT-549 = system: BT-549
IGROV-1 = system: IGROV-1
RPMI-8226 = system: RPMI-8226
A549 = system: A549
M14 = system: M14
CCRF-CEM = system: CCRF-CEM
NCI-H23 = system: NCI-H23
SN12C = system: SN12C
Hs-578T = system: Hs-578T
HT-29 = system: HT-29
EKVX = system: EKVX
HCT-116 = system: HCT-116
DU-145 = system: DU-145
SK-MEL-5 = system: SK-MEL-5
SK-MEL-2 = system: SK-MEL-2
ACHN = system: ACHN
KM12 = system: KM12
UACC-257 = system: UACC-257

CN(C)/C=N/S(=O)(=O)c1nn2c(C=O)c(-c3ccc([N+](=O)[O-])cc3)nc2s1
GI50 (CAKI-1): 0.627 µM (active)
GI50 (HOP-62): 26.1 µM (inactive)
GI50 (MDA-N): 2.91 µM (inactive)
GI50 (LOX IMVI): 2.93 µM (inactive)
GI50 (MDA-MB-231): 12.4 µM (inactive)
GI50 (HCC 2998): 17.4 µM (inactive)
GI50 (A498): 27.6 µM (inactive)
GI50 (MCF7): 4.68 µM (inactive)
GI50 (HCT-15): 2.94 µM
GI50 (PC-3): 7.21 µM (inactive)
GI50 (SNB-75): 23.6 µM (inactive)
GI50 (HL-60): 1.38 µM (inactive)
GI50 (786-0): 2.29 µM (inactive)
GI50 (HOP-92): 12.6 µM (inactive)
GI50 (SF-295): 35.1 µM (inactive)
GI50 (SK-MEL-28): 4.23 µM (inactive)
GI50 (OVCAR-4): 11.4 µM (inactive)
GI50 (K562): 2.43 µM (inactive)
GI50 (SNB-19): 28.6 µM (inactive)
GI50 (COLO 205): 3.18 µM (inactive)
GI50 (T47D): 5.68 µM (inactive)
GI50 (MDA-MB-435): 6.3 µM (inactive)
GI50 (MOLT-4): 2.35 µM (inactive)
GI50 (NCI-H226): 19.6 µM (inactive)
GI50 (SF-268): 13.6 µM (inactive)
GI50 (OVCAR-3): 4.11 µM (inactive)
GI50 (OVCAR-8): 3.67 µM (inactive)
GI50 (UO-31): 2.61 µM (inactive)
GI50 (OVCAR-5): 23.4 µM (inactive)
GI50 (UACC-62): 4.91 µM (inactive)
GI50 (SF-539): 8.11 µM (inactive)
GI50 (U-251): 8.69 µM (inactive)
GI50 (NCI-H460): 13.6 µM (inactive)
GI50 (SW-620): 2.52 µM (inactive)
GI50 (SK-OV-3): 53.7 µM (inactive)
GI50 (RXF 393): 5.62 µM (inactive)
GI50 (Malme-3M): 2.23 µM (inactive)
GI50 (NCI-H522): 1.27 µM (inactive)
GI50 (NCI/ADR-RES): 8.85 µM (inactive)
GI50 (TK-10): 5.73 µM (inactive)
GI50 (SR): 2.06 µM (inactive)
GI50 (BT-549): 3.79 µM (inactive)
GI50 (IGROV-1): 3.15 µM (inactive)
GI50 (RPMI-8226): 2.39 µM (inactive)
GI50 (A549): 22.8 µM (inactive)
GI50 (M14): 2.79 µM (inactive)
GI50 (CCRF-CEM): 0.834 µM (active)
GI50 (NCI-H23): 12 µM (inactive)
GI50 (SN12C): 5.42 µM (inactive)
GI50 (Hs-578T): 24.5 µM (inactive)
GI50 (HT-29): 1.54 µM (inactive)
GI50 (EKVX): 16.6 µM (inactive)
GI50 (HCT-116): 1.67 µM (inactive)
GI50 (DU-145): 6.67 µM (inactive)
GI50 (SK-MEL-5): 3.3 µM (inactive)
GI50 (SK-MEL-2): 10.4 µM (inactive)
GI50 (ACHN): 2.03 µM (inactive)
GI50 (KM12): 9.12 µM (inactive)
GI50 (UACC-257): 9.44 µM (inactive)

O=C1CC(O)c2cscc21 (centres undefined)
GI50 (CAKI-1): > 100 µM (inactive)
GI50 (HOP-62): > 100 µM (inactive)
GI50 (MDA-N): > 100 µM (inactive)
GI50 (LOX IMVI): 36.5 µM (inactive)
GI50 (MDA-MB-231): > 100 µM (inactive)
GI50 (HCC 2998): 32.2 µM (inactive)
GI50 (A498): > 100 µM (inactive)
GI50 (MCF7): > 100 µM (inactive)
GI50 (HCT-15): > 100 µM
GI50 (PC-3): > 100 µM (inactive)
GI50 (SNB-75): > 100 µM (inactive)
GI50 (HL-60): > 100 µM (inactive)
GI50 (786-0): > 100 µM (inactive)
GI50 (HOP-92): > 100 µM (inactive)
GI50 (SF-295): > 100 µM (inactive)
GI50 (SK-MEL-28): > 100 µM (inactive)
GI50 (OVCAR-4): > 100 µM (inactive)
GI50 (K562): 38.1 µM (inactive)
GI50 (COLO 205): 34 µM (inactive)
GI50 (T47D): > 100 µM (inactive)
GI50 (MDA-MB-435): > 100 µM (inactive)
GI50 (MOLT-4): 35.2 µM (inactive)
GI50 (NCI-H226): > 100 µM (inactive)
GI50 (SF-268): > 100 µM (inactive)
GI50 (OVCAR-3): > 100 µM (inactive)
GI50 (OVCAR-8): 65.9 µM (inactive)
GI50 (OVCAR-5): > 100 µM (inactive)
GI50 (UACC-62): > 100 µM (inactive)
GI50 (SF-539): > 100 µM (inactive)
GI50 (U-251): > 100 µM (inactive)
GI50 (NCI-H460): > 100 µM (inactive)
GI50 (SW-620): 37.8 µM (inactive)
GI50 (SK-OV-3): > 100 µM (inactive)
GI50 (RXF 393): > 100 µM (inactive)
GI50 (Malme-3M): > 100 µM (inactive)
GI50 (NCI-H522): 41.3 µM (inactive)
GI50 (NCI/ADR-RES): > 100 µM (inactive)
GI50 (TK-10): > 100 µM (inactive)
GI50 (SR): 29.5 µM (inactive)
GI50 (BT-549): > 100 µM (inactive)
GI50 (IGROV-1): > 100 µM (inactive)
GI50 (RPMI-8226): 35.3 µM (inactive)
GI50 (CCRF-CEM): 21.6 µM (inactive)
GI50 (NCI-H23): > 100 µM (inactive)
GI50 (SN12C): > 100 µM (inactive)
GI50 (Hs-578T): > 100 µM (inactive)
GI50 (HT-29): > 100 µM (inactive)
GI50 (EKVX): > 100 µM (inactive)
GI50 (HCT-116): > 100 µM (inactive)
GI50 (DU-145): > 100 µM (inactive)
GI50 (SK-MEL-5): > 100 µM (inactive)
GI50 (SK-MEL-2): > 100 µM (inactive)
GI50 (ACHN): > 100 µM (inactive)
GI50 (KM12): > 100 µM (inactive)
GI50 (UACC-257): > 100 µM (inactive)
